Test results taken from PMC10269775, “Penicillin-Binding Protein Occupancy Dataset for 18 β-Lactams and 4 β-Lactamase Inhibitors in Neisseria gonorrhoeae” (Microbiology Spectrum, 2023).
Values after ≈ are worked out from the molar mass of the structure shown. Read-outs that look alike come from different tables or passages of the source.

Columns and labels:
[1] = tested on: N. gonorrhoeae ATCC 19424; assay: MIC, CLSI broth microdilution; type: cell-based; conditions: Neisseria gonorrhoeae, ATCC19424, strain ATCC 19424
PBP1 [2] = biological target: T1, PBP1 (Neisseria gonorrhoeae, UniProt O05131); assay: PBP-binding assay (Bocillin FL) in isolated membrane preparations; conditions: strain ATCC 19424
T1 construct: endogenous in cells; host or cells: N. gonorrhoeae ATCC 19424, isolated membrane preparation
Source text: (§1) Bacterial membranes were collected by ultracentrifugation.

[3] = tested on: N. gonorrhoeae ATCC 49226; assay: MIC, CLSI broth microdilution; type: cell-based, Neisseria gonorrhoeae; conditions: for MIC: strain ATCC 49226
PBP2 [4] = biological target: T2, PBP2 (Neisseria gonorrhoeae, UniProt P08149, A510V/A516G/A574V/F504L/H541N/I556V/I566V/K555Q/P552V); assay: biochemical; type: binding, Neisseria gonorrhoeae ATCC 49226; conditions: IC50 PBP2, strain ATCC 49226; membrane preparation, 30 min drug then Bocillin FL
T2 construct: endogenous in cells; host or cells: N. gonorrhoeae ATCC 49226, isolated membrane preparation

PBP1 [5] = biological target: T3, PBP1 (Neisseria gonorrhoeae, UniProt O05131, A375T/F666S); assay: PBP-binding assay (Bocillin FL) in isolated membrane preparations; parameters: species or system Neisseria gonorrhoeae ATCC 49226
T3 construct: endogenous in cells; host or cells: N. gonorrhoeae ATCC 49226, isolated membrane preparation
Source text: as §1

PBP2 [6] = biological target: T4, PBP2 (Neisseria gonorrhoeae, UniProt P08149, H541N); assay: as above; parameters: species or system Neisseria gonorrhoeae ATCC 19424
T4 construct: endogenous in cells; host or cells: N. gonorrhoeae ATCC 19424, isolated membrane preparation

[7] = tested on: N. gonorrhoeae ATCC 19424 and ATCC 49226; assay: MIC, summary over both strains; type: cell-based, Neisseria gonorrhoeae
PBP1, PBP2 and PBP3 [8] = biological target: PBP1, PBP2 and PBP3 (Neisseria gonorrhoeae, UniProt P08149, H541N); type: binding, Neisseria gonorrhoeae ATCC 19424; conditions: read-out: min. IC50 (minimum observed IC50 value); strain ATCC 19424
PBP1, PBP2 and PBP3 [9] = biological target: PBP1, PBP2 and PBP3 (Neisseria gonorrhoeae, UniProt P08149, A510V/A516G/A574V/F504L/H541N/I556V/I566V/K555Q/P552V); type: binding, Neisseria gonorrhoeae ATCC 49226; conditions: read-out: min. IC50 (minimum observed IC50 value); strain ATCC 49226
PBP3 [10] = biological target: T5, PBP3 (Neisseria gonorrhoeae, UniProt Q5FAB9); conditions: read-out: IC50 PBP3; strain ATCC 19424; membrane preparation, 30 min drug then Bocillin FL
T5 sequence (Q5FAB9 22-469): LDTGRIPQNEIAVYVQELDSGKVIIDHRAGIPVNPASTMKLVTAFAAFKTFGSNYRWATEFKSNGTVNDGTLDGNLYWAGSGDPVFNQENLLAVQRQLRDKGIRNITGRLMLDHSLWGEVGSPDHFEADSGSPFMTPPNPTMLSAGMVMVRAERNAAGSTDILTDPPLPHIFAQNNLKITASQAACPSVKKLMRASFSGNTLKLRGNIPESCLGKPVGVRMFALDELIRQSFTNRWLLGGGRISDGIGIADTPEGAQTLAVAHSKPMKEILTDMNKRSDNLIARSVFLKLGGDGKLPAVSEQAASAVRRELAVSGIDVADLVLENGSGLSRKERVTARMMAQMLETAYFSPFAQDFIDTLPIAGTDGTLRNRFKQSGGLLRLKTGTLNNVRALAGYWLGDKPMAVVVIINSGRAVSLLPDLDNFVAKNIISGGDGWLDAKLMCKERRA

PBP3 [11] = biological target: T5, PBP3; conditions: read-out: IC50 PBP3; strain ATCC 49226; membrane preparation, 30 min drug then Bocillin FL
PBP1, PBP2 and PBP3 [12] = biological target: T6, PBP1, PBP2 and PBP3 (Neisseria gonorrhoeae, UniProt Q5FAB9); type: binding, Neisseria gonorrhoeae ATCC 49226; conditions: read-out: min. IC50 (minimum observed IC50 value); strain ATCC 49226
T6 sequence (Q5FAB9 22-469): T5 sequence (Q5FAB9 22-469)

[13] = membrane preparation, 30 min drug then Bocillin FL, read-out: IC50 PBP1 (converted)
[14] = Neisseria gonorrhoeae, ATCC49226, read-out: MIC
[15] = Neisseria gonorrhoeae, ATCC49226, read-out: MIC (Table S1)
[16] = IC50 PBP1, strain ATCC 49226, membrane preparation, 30 min drug then Bocillin FL
[17] = IC50 PBP2, strain ATCC 19424, membrane preparation, 30 min drug then Bocillin FL
[18] = read-out: IC50 PBP1 (Table S1) (converted)
[19] = strain ATCC 19424, membrane preparation, 30 min drug then Bocillin FL, read-out: IC50 PBP2 (converted)

Row | SMILES | MIC ([1]; read-out: MIC) [µg/mL] | MIC ([1]; read-out: MIC (Table S1)) [µg/mL] | IC50 (PBP1 [2]; [13]) [nM] | MIC [3, 14] [µg/mL] | MIC [3, 15] [µg/mL] | IC50 (PBP2 [4]) [nM] | IC50 (PBP1 [5]; [16]) [nM] | IC50 (PBP2 [6]; [17]) [nM] | IC50 (PBP1, PBP2 and PBP3 [8]) [nM] | IC50 (PBP1, PBP2 and PBP3 [9]) [nM] | IC50 (PBP3 [10]) [nM] | IC50 (PBP3 [11]) [nM] | further results
1 | CO[C@@]1(NC(=O)Cc2cccs2)C(=O)N2C(C(=O)O)=C(COC(N)=O)CS[C@@H]21 [FOX, cefoxitin] | 0.25 (≈ 0.585 µM) | 0.25 (≈ 0.585 µM) | 1360 | 0.5 (≈ 1.17 µM) | 0.5 (≈ 1.17 µM) | > 4680 | 2130 | 912 | – | – | – | – | –
2 | C[C@@H](O)[C@H]1C(=O)N2C(C(=O)O)=C(SCCN=CN)C[C@H]12 [IPM, imipenem] | 0.032 (≈ 0.107 µM) | 0.032 (≈ 0.107 µM) | 1340 | 0.064 (≈ 0.214 µM) | 0.064 (≈ 0.214 µM) | 568 | 2670 | 234 | – | – | – | – | MIC ([7]; Neisseria gonorrhoeae, across the two ATCC strains): 0.032 to 0.064 µg/mL (≈ 0.107 to 0.214 µM)
3 | CC1(C)S[C@@H]2[C@H](/N=C/N3CCCCCC3)C(=O)N2[C@H]1C(=O)O [MEC, amdinocillin] | 1 (≈ 3.07 µM) | 1 (≈ 3.07 µM) | 313000 | 8 (≈ 24.6 µM) | 8 (≈ 24.6 µM) | – | – | 4090 | 4090 | – | – | – | IC50 (PBP1 [2]; [18]): 314000 nM
4 | C[C@@H](O)[C@H]1C(=O)N2C(C(=O)O)=C(S[C@@H]3CN[C@H](C(=O)N(C)C)C3)[C@H](C)[C@H]12 [MEM, meropenem] | 0.008 (≈ 0.0209 µM) | 0.008 (≈ 0.0209 µM) | 626 | 0.016 (≈ 0.0417 µM) | 0.016 (≈ 0.0417 µM) | – | 1170 | – | – | – | – | – | times more active ([7]; compared with imipenem): 8 times; IC50 (PBP2 [6]; IC50 PBP2 (Table S1), strain ATCC 19424): 104 nM
5 | CCN1CCN(C(=O)N[C@@H](C(=O)N[C@@H]2C(=O)N3[C@@H]2SC(C)(C)[C@@H]3C(=O)O)c2ccccc2)C(=O)C1=O [PIP, piperacillin] | 0.001 (≈ 0.00193 µM) | 0.001 (≈ 0.00193 µM) | > 3860 | – | 0.125 (≈ 0.242 µM) | 19.3 | > 3860 | – | 38.6 | 19.3 | – | – | MIC increase for strain ATCC 49226 ([3]; ATCC 49226 versus ATCC 19424): 125 fold; IC50 (PBP2 [6]; [19]): 38.6 nM
6 | CC1(C)S[C@@H]2[C@H](NC(=O)[C@H](C(=O)O)c3ccsc3)C(=O)N2[C@H]1C(=O)O [TIC, ticarcillin] | 0.016 (≈ 0.0416 µM) | 0.016 (≈ 0.0416 µM) | > 5200 | 0.5 (≈ 1.3 µM) | 0.5 (≈ 1.3 µM) | > 5200 | > 5200 | – | 494 | – | 2730 | 1640 | IC50 (PBP1, PBP2 and PBP3 [12]): 1640 nM; IC50 (PBP2 [6]; [19]): 494 nM
7 | Cn1c(N)c(NC(=O)NCCN)c[n+]1CC1=C(C(=O)O)N2C(=O)[C@@H](NC(=O)/C(=N\OC(C)(C)C(=O)[O-])c3nsc(N)n3)[C@H]2SC1 [TOL, ceftolozane] | 0.032 (≈ 0.048 µM) | 0.032 (≈ 0.048 µM) | > 3000 | 0.25 (≈ 0.375 µM) | 0.25 (≈ 0.375 µM) | 405 | > 3000 | 60 | 60 | 405 | > 3000 | > 3000 | MIC [3]: 0.250 µg/mL (≈ 0.375 µM)
8 | C[C@]1(Cn2ccnn2)[C@H](C(=O)O)N2C(=O)C[C@H]2S1(=O)=O [TZ, tazobactam] | 0.125 (≈ 0.416 µM) | 0.125 (≈ 0.416 µM) | 63300 | 1 (≈ 3.33 µM) | 1 (≈ 3.33 µM) | 4800 | 83300 | 3560 | 3560 | 4800 | 15700 | 18900 | IC50 (PBP1 [2]; [18]): 64000 nM; IC50 (PBP1 [5]; IC50 PBP1 (Table S1), strain ATCC 49226): 83600 nM
